From patent publication US20200157144A1, “ANTIMICROBIAL PEPTIDOMIMETICS” (priority 2017, published 2020)
In brackets after ≈: the same amount, converted by molar mass. Square brackets hold non-standard residues; d marks the D form. Peptide text beside a SMILES is read from it. Bip(4'-Cl) = N[C@@H](Cc1ccc(-c2ccc(Cl)cc2)cc1)C(=O)O; Bip(4'-Me) = Cc1ccc(-c2ccc(C[C@H](N)C(=O)O)cc2)cc1; Bip = N[C@@H](Cc1ccc(-c2ccccc2)cc1)C(=O)O

Tested on: Mupirocin-resistant MRSA ATCC-BAA-1556
Assay: microbe, parasite or virus in culture
Format: cell-based, Staphylococcus aureus
Conditions: ATCC-BAA-1556; read-out: MIC
Method: The MICs of test compounds were determined using the microdilution method from the Clinical and Laboratory Standards Institute (CLSI) guidelines (Clinical and Laboratory Standards Institute. Methods for dilution antimicrobial susceptibility tests for bacteria that grow aerobically; approved standard—ninth edition. Document M07-A9. Vol. 32 No. 2. Wayne, Pa.: CLSI; 2012). Briefly, bacteria were grown fresh from frozen stock in Mueller Hinton 2 (MH2) agar at 37° C. After an overnight incubation, 5 bacteria colonies were selected to grow in cation-adjusted MH2 broth in a shaking incubator (140 RPM) at 37° C. Cells were grown to an optical density (OD600) of 0.15-0.16 determined using a spectrophotometer (Molecular Devices Spectra Max Plus), which corresponds to ˜1×10^8 CFU/mL. Test compounds were constituted into 4 mM DMSO stock solutions and then subjected to 2-fold serial dilution in a 96-well plate with concentrations ranging from 100 to 0.195 μM in duplicates. […] of microbial culture containing ˜1×10^6 CFU/mL of microbes in the respective broths was introduced into each well containing 50 μL of compound solution. After an overnight incubation at 35° C., (220 RPM), OD600 measurements were conducted using the microplate spectrophotometer. The MIC was defined as the lowest antibiotic or compound concentration (μM) required to inhibit bacteria growth.
The 11th well was used as the growth control well (medium with bacterial inoculums, no antibacterial) while the 12th well was the sterility control well (medium only).

Compound | MIC [µM]
N=C(N)NCCCCNC(=O)[C@H](Cc1ccc(-c2ccccc2)cc1)NC(=O)[C@H](CCCNC(=N)N)NC(=O)[C@@H](N)Cc1ccc(-c2ccccc2)cc1 [Compound 1] | 12.5 (≈ 9.16 µg/mL)
N=C(N)NCCC[C@H](NC(=O)[C@H](Cc1ccc(-c2ccccc2)cc1)NC(=O)[C@H](CCCNC(=N)N)NC(=O)[C@@H](N)Cc1ccc(-c2ccc(-c3ccccc3)cc2)cc1)C(N)=O [Compound 25] | 100 (≈ 85.2 µg/mL)
N=C(N)NCCC[C@H](NC(=O)[C@H](Cc1ccc(-c2ccccc2)cc1)NC(=O)[C@H](CCCNC(=N)N)NC(=O)[C@@H](N)Cc1ccc(-c2ccccc2)cc1)C(N)=O [Compound 3] (H-[Bip]R[Bip]R-NH2) | 12.5 (≈ 9.7 µg/mL)

Continued, values first:

MIC [µM] | Compound
6.25 (≈ 5.07 µg/mL) | N=C(N)NCCC[C@H](NC(=O)[C@H](Cc1ccc(-c2ccccc2)cc1)NC(=O)[C@H](CCCNC(=N)N)NC(=O)[C@@H](N)Cc1ccc(-c2ccc(Cl)cc2)cc1)C(N)=O [Compound 15] (H-[Bip(4'-Cl)]R[Bip]R-NH2)
12.5 (≈ 9.87 µg/mL) | Cc1ccc(-c2ccc(C[C@H](NC(=O)[C@H](CCCNC(=N)N)NC(=O)[C@@H](N)Cc3ccc(-c4ccccc4)cc3)C(=O)N[C@@H](CCCNC(=N)N)C(N)=O)cc2)cc1 [Compound 22] (H-[Bip]R[Bip(4'-Me)]R-NH2)
